Experimental data from patent US20150174059A1, “ORAL CARE” (University of Pretoria, priority 2012, published 2015).
Where a name gives a salt, the structure may show the parent alone. Read-outs that look alike come from different tables or passages of the source. Marks after values point to notes of the source that are not given here. Numbered stars: 1 amine (or outer) side, 2 acyl side, 3 side chain; on linkers, the order of the positions; unused ones are H or OH. Bridge positions count the residues as written; N and C are the ends. Square brackets hold non-standard residues; d marks the D form. Peptide text beside a SMILES is read from it. I, II: the chains in the order shown. Actinocin(9to1) = Cc1c2oc3c(C)ccc(C(=O)[*:1])c3nc-2c(C(=O)[*:2])c(N)c1=O; NMeV = CN[C@H](C(=O)O)C(C)C; Sar = CNCC(=O)O

Columns and labels:
HEp-2 cells = assay: Cytotoxicity, XTT method, HEp-2 cells; type: cell-based; conditions: for CC50: Homo sapiens, 72 h, read-out: 50% inhibition of cell growth IC50 + S.D.
Procedure: (§1) Microtitre plates with Vero and HEp-2 cells (Highveld Biological, Gauteng) were used for testing the four best ethanol extracts for cytotoxicity following the method of Basson (2005). Cytotoxicity was measured by the XTT (Sodium 3′-[1-(phenyl amino-carbonyl)-3,4-tetrazolim]-bis-[4 methoxy-6-nitro]benzene sulfonic acid hydrate) method using the cell proliferation kit II (Roche Diagnostics GmbH). A hundred microliters of Vero and HEp-2 cells (1×10^5 ml) were seeded onto micro-plates and incubated for 24 hrs to allow the cells to attach to the bottom of the plate. Dilution series were made of the extracts and the various concentrations (400-3.1 μg/ml) were added to the micro-plate and incubated for 72 hours. The XTT reagents were added to a final concentration of 0.3 mg/ml and the cells were incubated for one to two hours. The positive drug controls Doxorubicin HCl (Sigma-Aldrich, South Africa) and Actinomycin D (Sigma-Aldrich, South Africa), at concentration ranges of 0.78-0.01 μg/ml, were included in the assay. After incubation the absorbance of the colour was spectrophotometrically quantified using an enzyme-linked immunosorbent assay (ELISA) plate reader (BIO-TEK Power-Wave XS, Weltevreden Park, South Africa), which measured the optical density at 490 nm with a reference wavelength of 690 nm. The assay was carried out in triplicate.

[1] = tested on: Actinomyces israelii (ATCC 10049); assay: Microdilution MIC/MBC against Actinomyces israelii; type: cell-based; conditions: for MIC / MBC: ATCC10049
Procedure: (§2) The microorganisms used in this study included Actinomyces israelii (ATCC 10049), Prevotella intermedia (ATCC 25611), Streptococcus mutans (ATCC 25175), Candia albicans (ATCC 10231) and a strain of Candida albicans resistant to polyenes and azoles (1051604). The bacteria were grown on Casein-peptone Soymeal-peptone Agar medium (CASO) (Merck Chemicals (Pty) Ltd Wadeville, South Africa) under anaerobic conditions in an anaerobic jar with Anaerocult® A (Merck KGaA Darmstadt, Germany), at 37° C. for 72 hours. Actinomyces israelii and S. mutans had CASO agar enriched with 1% sucrose (Merck Chemicals (Pty) Ltd Wadeville, South Africa). The drug susceptible and drug resistant strains of C. albicans were grown on Sabouraud Dextrose 4% Agar (SDA) (Merck Chemicals (Pty) Ltd Wadeville, South Africa), at 37° C. for 72 hours. Sub-culturing was done every second week. Inocula were prepared by suspending bacterial test organisms in their respective broths until turbidity was compatible with McFarland Standard 1 (Merck Chemicals (Pty) Ltd Wadeville, South Africa). Yeast test organisms were suspended in sterile distilled water until turbidity was compatible with McFarland Standard 1 (McFarland, 1907).
(§3) The microdilution technique using 96-well micro-plates, as described by Eloff (1998) was used to obtain the MIC and MBC values of the crude extracts against the microorganisms under study. The extracts, dissolved in 10% dimethyl sulphoxide (DMSO) (Merck Chemicals (Pty) Ltd), were serially diluted in broth (enriched for A. israelii and S. mutans) for the bacteria and sterile water for the Candida species; in the 96-well plate adding 48 hour old microorganisms grown at 37° C. The final concentration of extracts ranged from 12.5-0.10 mg/ml and the positive control, 5% chlorhexidine gluconate (CHX) (Dental Warehouse, Sandton, South Africa), ranged from 12.5-3.8×10^−4 mg/ml. Amphotericin B (Davis Diagnostics, Gauteng) an established antifungal drug, ranging from 0.2 mg/ml to 1.5×10^−3 mg/ml, was included for the Candida assays. […] Actinomyces israelii and S. mutans were incubated at 37° C., under anaerobic conditions, for 24 hours; P. intermedia was incubated at 37° C., under anaerobic conditions, for 48 hours; and C. albicans was incubated at 37° C. with p-iodonitrotetrazolium violet (INT) (Sigma-Aldrich, South Africa) already added, under moist aerobic conditions, for 24 hours.
To indicate bacterial growth, 50 μl of (0.2 mg/ml) INT, was added to micro-plate wells and incubated at 37° C., under anaerobic conditions, for 20-60 minutes until a red colour developed. The MIC was defined as the lowest concentration that inhibited the colour change of INT. […] These suspensions were reincubated at 37° C. for 28 hours (48 hours for P. intermedia), under anaerobic conditions. The MBC was determined as the lowest concentration of extract which inhibited 100% growth of microorganisms (Cohen et al., 1998).

[2] = tested on: Candida albicans (ATCC 10231); assay: Microdilution MIC/MBC against Candida albicans; type: cell-based
Procedure: as §2
The microdilution technique using 96-well micro-plates, as described by Eloff (1998) was used to obtain the MIC and MBC values of the crude extracts against the microorganisms under study. The extracts, dissolved in 10% dimethyl sulphoxide (DMSO) (Merck Chemicals (Pty) Ltd), were serially diluted in broth (enriched for A. israelii and S. mutans) for the bacteria and sterile water for the Candida species; in the 96-well plate adding 48 hour old microorganisms grown at 37° C. The final concentration of extracts ranged from 12.5-0.10 mg/ml and the positive control, 5% chlorhexidine gluconate (CHX) (Dental Warehouse, Sandton, South Africa), ranged from 12.5-3.8×10^−4 mg/ml. Amphotericin B (Davis Diagnostics, Gauteng) an established antifungal drug, ranging from 0.2 mg/ml to 1.5×10^−3 mg/ml, was included for the Candida assays. […]

[3] = tested on: Candida albicans resistant to polyenes and azoles (1051604); assay: Microdilution MIC/MBC against polyene and azole resistant C. albicans; type: cell-based; conditions: Yeast
Procedure: as §2, §3
To indicate bacterial growth, 50 μl of (0.2 mg/ml) INT, was added to micro-plate wells and incubated at 37° C., under anaerobic conditions, for 20-60 minutes until a red colour developed. The MIC was defined as the lowest concentration that inhibited the colour change of INT. […] These suspensions were reincubated at 37° C. for 28 hours (48 hours for P. intermedia), under anaerobic conditions. […]

Bacillus subtilis = conditions: Aurentiacin A isolated from Myrica serrate; cited from earlier work
E. coli = conditions: Aurentiacin A isolated from Myrica serrate; cited from earlier work
Cladosprium cucumerinum = conditions: Aurentiacin A isolated from Myrica serrate; cited from earlier work
[4] = tested on: Prevotella intermedia (ATCC 25611); assay: Microdilution MIC/MBC against Prevotella intermedia; type: cell-based; conditions: ATCC25611, Gram -ve
Procedure: as §2
(§4) The microdilution technique using 96-well micro-plates, as described by Eloff (1998) was used to obtain the MIC and MBC values of the crude extracts against the microorganisms under study. […]

[5] = tested on: Streptococcus mutans (ATCC 25175); assay: Microdilution MIC/MBC against Streptococcus mutans; type: cell-based; conditions: ATCC25175, Gram +ve
Procedure: as §2, §4

in vitro = type: cell-based; conditions: African green monkey
Procedure: as §1

DPPH antioxidant assay = type: biochemical; conditions: single component
Procedure: DPPH (2,2-diphenyl-1-picrylhydrazyl hydrate) is a stable free radical with an unpaired valence electron at a nitrogen atom forming a bridge. The free radical can initiate a chain reaction which causes the removal of an electron from another molecule to complete its own orbital. This free valence electron forms the basis of the DPPH assay as samples are tested to determine the scavenging capability of this DPPH radical.
A modified antioxidant assay was used (du Toit et al., 2001). A 2% stock solution of M. piperita and M. alternifolia, a 2 mg/ml stock solution of ascorbic acid (vitamin C) (Sigma-Aldrich (Pty) Ltd, Aston Manor, South Africa) and H. natalensis, a 1 mg/ml stock solution of Quercetin, a 500 μg/ml stock solution of TEAVIGO™ and a synergistic compilation of H. natalensis (3.125 mg/ml), M. alternifolia (0.05% v/v), M. piperita (0.05% v/v) and TEAVIGO™ (2.5 mg/ml) were prepared.
In a 96 well ELISA plate, 20 μl of each sample was added to 200 μl dH2O (except for Quercetin which was added to 200 μl EtOH), serial dilutions were done. After which […] DPPH (Sigma-Aldrich (Pty) Ltd, Aston Manor, South Africa) dissolved in ethanol (40 μg/ml) were added to all wells. All samples were prepared in triplicate. […] The absorbance was measured in an ELISA plate reader at 515 nm (du Toit et al., 2001). […]

[6] = against Actinomyces israelii, read-out: MIC of the isolated compounds
[7] = against Actinomyces israelii, NA = Not active, read-out: MBC of the isolated compounds

## Oc1cc(O)c2c(c1)OC(c1ccccc1)C(O)C2 (stereo not drawn) [3,5,7-trihydroxyflavan (5), 3,5,7-Trihydroxyflavan]
HEp-2 cells
  CC50: > 200 µg/mL
[1]; [6]
  MIC: > 1000 µg/mL
[1]; against Actinomyces israelii
  MIC of the isolated compounds: >1000 µg/mL

## Cc1c2oc3c(C)ccc(C(=O)N[C@@H]4C(=O)N[C@H](C(C)C)C(=O)N5CCC[C@H]5C(=O)N(C)CC(=O)N(C)[C@@H](C(C)C)C(=O)O[C@@H]4C)c3nc-2c(C(=O)N[C@@H]2C(=O)N[C@H](C(C)C)C(=O)N3CCC[C@H]3C(=O)N(C)CC(=O)N(C)[C@@H](C(C)C)C(=O)O[C@@H]2C)c(N)c1=O [Actinomycin D] (I: T[dV]P[Sar][NMeV] / II: T[dV]P[Sar][NMeV]; ester I:1-I:C, II:1-II:C; linker I:N-II:N via Actinocin(9to1))
HEp-2 cells
  50% inhibition of cell growth IC50 + S.D.: 9.6 × 10^−3 ± 0.0003^c μg/ml
HEp-2 cells; XTT, 72 hours
  Cytotoxicity IC50, HEp-2: 0.0085 µg/mL

## C[C@@H]1[C@H](O)[C@@H](C)/C=C/C=C/C=C/C=C/C=C/C=C/C=C/[C@H](O[C@@H]2O[C@H](C)[C@@H](O)[C@H](N)[C@@H]2O)C[C@@H]2O[C@](O)(C[C@@H](O)C[C@@H](O)[C@H](O)CC[C@@H](O)C[C@@H](O)CC(=O)O[C@H]1C)C[C@H](O)[C@H]2C(=O)O [Amphotericin B]
[2]; Yeast
  MIC, C.a: >0.2^c mg/ml
[3]
  MBC, C.a (res): 0.013^c mg/ml
  MIC, C.a (res): 0.013^c mg/ml

## COc1c(C)c(O)cc(O)c1C(=O)/C=C/c1ccccc1 [Aurentiacin A (1), 2′-Me ether derivative of 2′,4′,6′-trihydroxy-3′-methylchalcone]
Bacillus subtilis
  growth inhibition: inhibits the growth
HEp-2 cells
  CC50: 6.36 ± 5.09 µg/mL
E. coli
  growth inhibition: inhibits the growth
Cladosprium cucumerinum
  growth inhibition: inhibits the growth
[1]; [7]
  MBC: 62.5 µg/mL
[1]; [6]
  MIC: 62.5 µg/mL

## [H]/N=C(\N/C(=N/[H])NCCCCCCNC(=N)NC(=N)Nc1ccc(Cl)cc1)Nc1ccc(Cl)cc1 [Chlorhexidine, chlorhexidine gluconate]
[2]; ATCC10231, Yeast
  MBC: 293 µg/mL
  MIC: 352 µg/mL
[4]
  MBC: 1040 µg/mL
  MIC: 260 µg/mL
[5]
  MBC: 415 µg/mL
  MIC: 61 µg/mL
[1]; Gram +ve, Actinomyces israelii, read-out: MBC, A.i
  MBC: 39 µg/mL
[1]; Gram +ve, Actinomyces israelii, read-out: MIC, A.i
  MIC: 33 µg/mL
[1]; [7]
  MBC: 24 µg/mL
[1]; [6]
  MIC: 24 µg/mL
[1]; Actinomyces israelii, fractions of the ethanolic extract, against A. israelii, Na = Not active, read-out: Average minimum bactericidal concentration (MBC) of the fractions
  MBC: 48.8 µg/mL
[1]; Actinomyces israelii, fractions of the ethanolic extract, against A. israelii, read-out: Average minimum inhibitory concentration (MIC) of the fractions
  MIC: 18.3 µg/mL
[3]; Candida albicans
  MBC: 293 µg/mL
  MIC: 260 µg/mL

## COc1cccc2c1C(=O)c1c(O)c3c(c(O)c1C2=O)C[C@@](O)(C(=O)CO)C[C@@H]3O[C@H]1C[C@H](N)[C@H](O)[C@H](C)O1 [Doxorubicin, Doxorubicin HCl]
In vitro
  IC50 at 72 h: 0.06 µg/mL

## O=c1c(O)c(-c2ccc(O)c(O)c2)oc2cc(O)cc(O)c12 [Quercetin (4), 3,3′,4′,5,7-pentahydroxyflavone]
HEp-2 cells
  CC50: 187 ± 42.6 µg/mL
DPPH antioxidant assay
  IC50 ± SD, 50% of DPPH that is inhibited: 0.415 ± 0.01095 µg/mL
[1]; [7]
  MBC: 1000 µg/mL
[1]; [6]
  MIC: 1000 µg/mL

## O=C1O[C@H]([C@@H](O)CO)C(O)=C1O [Vitamin C, ascorbic acid]
DPPH antioxidant assay
  IC50 ± SD, 50% of DPPH that is inhibited: 1.98 ± 0.006 µg/mL

## Cardamomin [Cardamomin (2)]
HEp-2 cells
  50% inhibition of cell growth IC50 + S.D.: 52.12 ± 9.41 µg/mL
[1]; against Actinomyces israelii
  MIC of the isolated compounds: >1000 µg/mL
